Two compounds from ChEMBL document CHEMBL1667833, “Potent radiosensitizing agents: 5-methylselenyl- and 5-phenylselenyl-methyl-2'-deoxyuridine” (Bioorg Med Chem Lett, 2011) can be followed below.

The test system of test [1] is NCI-H460. The experiment in a line: Potentiation of gamma-irradiation-induced cytotoxicity against human H460 cells assessed as dose enhancement ratio at 300 uM administered 24 hrs before 2-8 Gy irradiation measured after 12 days. Type of test: functional.
In test [2] the test system is NCI-H460. The experiment in a line: Cytotoxicity against human H460 cells assessed as cell viability after 72 hrs by calorimetric assay. It counts as functional, cell-based. The settings on record: NCI-H460, 72 h.
Test [3] relates to NCI-H460. The experiment in a line: Potentiation of gamma-irradiation-induced cytotoxicity against human H460 cells assessed as dose enhancement ratio at 50 uM administered 24 hrs before 2-8 Gy irradiation measured after 12 days. Type of test: functional.

One may read the IC50 as the concentration at which inhibition is half-maximal. Regarding `O=c1[nH]c(=O)n([C@H]2C[C@H](O)[C@@H](CO)O2)cc1C[Se]c1ccccc1`, the Ratio in the test on NCI-H460 [1] is 1.12. For the same compound, in the test on NCI-H460 [2], the IC50 worked out at 500 µM.
For the compound `C[Se]Cc1cn([C@H]2C[C@H](O)[C@@H](CO)O2)c(=O)[nH]c1=O`, the Ratio in the test with NCI-H460 [3] is 1.2. Also, the IC50 with NCI-H460 [2] amounted to 100 µM.
